According to patent US10681909B2, “Herbicidal triazoles” (FMC Corporation, priority 2014, dated 2020):

Key:
buckwheat, wild = assay: Test D postemergence; assay type: in vivo, Polygonum convolvulus; details: scale 0 to 100
Method in brief: (§1)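 Visual injury ratings compared with untreated controls, taken 14 to 21 d after treatment in a controlled growth environment. Test chemicals were formulated in a surfactant-containing non-phytotoxic solvent and applied either preemergence to seeds in silt loam soil or postemergence to plants at the 1- to 4-leaf stage.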

oat, wild = assay: Test D preemergence; assay type: in vivo, Avena fatua; details: for Plant response rating: Oat, Wild: scale 0 to 100
Method in brief: as §1

oilseed rape [1] = assay: Test D preemergence; assay type: in vivo, Brassica napus; details: for Plant response rating: Oilseed Rape: scale 0 to 100
Method in brief: as §1

blackgrass = assay: Test A postemergence; assay type: in vivo, Alopecurus myosuroides; details: 0 to 100 scale (0 no effect, 100 complete control), approx. 10 d
Method in brief: (§2)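 Visual 0–100 ratings (0 no effect, 100 complete control) made roughly 10 days after treatment, comparing greenhouse-grown plants to untreated controls. Formulated test chemicals, with surfactant, went either as directed soil spray at planting or onto 2–10 cm seedlings bearing one to two leaves.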

oilseed rape [2] = assay: Test D postemergence; assay type: in vivo, Brassica napus; details: scale 0 to 100
Method in brief: as §1

ryegrass, Italian = assay: Test A preemergence; assay type: in vivo, Lolium multiflorum; details: 0 to 100 scale (0 no effect, 100 complete control)
Method in brief: as §2

wheat, spring = assay: Test D preemergence; assay type: in vivo, Triticum aestivum; details: for Plant response rating: Wheat, Spring: scale 0 to 100
Method in brief: as §1

wheat, winter = assay: Test D preemergence; assay type: in vivo, Triticum aestivum; details: for Plant response rating: Wheat, Winter: scale 0 to 100
Method in brief: as §1

galium [3] = assay: Test D preemergence; assay type: in vivo, Galium aparine; details: for Plant response rating: Galium: scale 0 to 100
Method in brief: as §1

galium [4] = assay: Test D postemergence; assay type: in vivo, Galium aparine; details: scale 0 to 100
Method in brief: as §1

radish, wild = assay: Test D postemergence; assay type: in vivo, Raphanus raphanistrum; details: scale 0 to 100
Method in brief: as §1

kochia = assay: Test A postemergence; assay type: in vivo, Kochia scoparia; details: 0 to 100 scale (0 no effect, 100 complete control), approx. 10 d
Method in brief: as §2

[5] = 16 g ai/ha, 0 is no effect, 100 is complete control

CCOc1nc(-c2ccc(C(F)(F)F)cc2)nn1Cc1ccnc(C(F)(F)F)c1 [Compound 35, 4-[[5-ethoxy-3-[4-(trifluoromethyl)phenyl]-1H-1,2,4-triazole-1-yl]methyl]-2-(trifluoromethyl)pyridine]
Plant response rating: Buckwheat, Wild (buckwheat, wild; 16 g ai/ha): 65
Plant response rating: Buckwheat, Wild (buckwheat, wild; 31 g ai/ha): 70
Plant response rating: Buckwheat, Wild (buckwheat, wild; 62 g ai/ha): 70
Plant response rating: Buckwheat, Wild (buckwheat, wild; 125 g ai/ha): 95
Plant response rating (0 to 100), Oat, Wild (oat, wild; [5]): 40
Plant response rating: Oat, Wild (oat, wild; 62 g ai/ha): 75
Plant response rating: Oat, Wild (oat, wild; 125 g ai/ha): 80
Plant response rating (0 to 100), Oilseed Rape (oilseed rape [1]; [5]): 25
Plant response rating: Oilseed Rape (oilseed rape [1]; 62 g ai/ha): 40
Plant response rating: Oilseed Rape (oilseed rape [1]; 125 g ai/ha): 100
Plant response rating, Blackgrass (blackgrass; 31 g ai/ha): 30
Plant response rating, Blackgrass (blackgrass; 125 g ai/ha): 50
Plant response rating: Oilseed Rape (oilseed rape [2]; 16 g ai/ha): 80
Plant response rating: Oilseed Rape (oilseed rape [2]; 31 g ai/ha): 90
Plant response rating: Oilseed Rape (oilseed rape [2]; 62 g ai/ha): 100
Plant response rating: Oilseed Rape (oilseed rape [2]; 125 g ai/ha): 100
Plant response rating, Ryegrass, Italian (ryegrass, Italian; 31 g ai/ha): 30
Plant response rating, Ryegrass, Italian (ryegrass, Italian; 125 g ai/ha): 60
Plant response rating (0 to 100), Wheat, Spring (wheat, spring; [5]): 25
Plant response rating: Wheat, Spring (wheat, spring; 62 g ai/ha): 50
Plant response rating: Wheat, Spring (wheat, spring; 125 g ai/ha): 50
Plant response rating (0 to 100), Wheat, Winter (wheat, winter; [5]): 20
Plant response rating: Wheat, Winter (wheat, winter; 62 g ai/ha): 40
Plant response rating: Wheat, Winter (wheat, winter; 125 g ai/ha): 45
Plant response rating (0 to 100), Galium (galium [3]; [5]): 70
Plant response rating: Galium (galium [3]; 62 g ai/ha): 80
Plant response rating: Galium (galium [3]; 125 g ai/ha): 80
Plant response rating: Galium (galium [4]; 16 g ai/ha): 70
Plant response rating: Galium (galium [4]; 31 g ai/ha): 75
Plant response rating: Galium (galium [4]; 62 g ai/ha): 80
Plant response rating: Galium (galium [4]; 125 g ai/ha): 80
Plant response rating: Radish, Wild (radish, wild; 16 g ai/ha): 85
Plant response rating: Radish, Wild (radish, wild; 31 g ai/ha): 100
Plant response rating: Radish, Wild (radish, wild; 62 g ai/ha): 100
Plant response rating: Radish, Wild (radish, wild; 125 g ai/ha): 100
Plant response rating, Kochia (kochia; 31 g ai/ha): 90
Plant response rating, Kochia (kochia; 125 g ai/ha): 90
